Values of other authors as cited in US20100040600A1, “Agents for Promoting the Growth of Hematopoietic Stem Cells” (CHUGAI SEIYAKU KABUSHIKI KAISHA, priority 2006, published 2010).
Numbered stars: 1 amine (or outer) side, 2 acyl side, 3 side chain; on linkers, the order of the positions; unused ones are H or OH. Bridge positions count the residues as written; N and C are the ends. Square brackets hold non-standard residues; d marks the D form. Peptide text beside a SMILES is read from it. I, II: the chains in the order shown. 2Nal = N[CH](Cc1ccc2ccccc2c1)C(=O)O; X1 = NC(N)NCCCC(N[*:1])C(=O)[*:2]; NMeI = CC[CH](C)[CH](NC)C(=O)O; Sar = CNCC(=O)O

Experiments:
Hu BM CD34 = conditions: in vitro activity; read-out: Hu BM CD34 differentiation assay: EC50; cited from earlier work
[1] = cited from earlier work
[2] = molecular target: T1, hu c-mpl transmembrane domain (Homo sapiens, UniProt P40238); conditions: cited from earlier work
T1 sequence (P40238 26-635): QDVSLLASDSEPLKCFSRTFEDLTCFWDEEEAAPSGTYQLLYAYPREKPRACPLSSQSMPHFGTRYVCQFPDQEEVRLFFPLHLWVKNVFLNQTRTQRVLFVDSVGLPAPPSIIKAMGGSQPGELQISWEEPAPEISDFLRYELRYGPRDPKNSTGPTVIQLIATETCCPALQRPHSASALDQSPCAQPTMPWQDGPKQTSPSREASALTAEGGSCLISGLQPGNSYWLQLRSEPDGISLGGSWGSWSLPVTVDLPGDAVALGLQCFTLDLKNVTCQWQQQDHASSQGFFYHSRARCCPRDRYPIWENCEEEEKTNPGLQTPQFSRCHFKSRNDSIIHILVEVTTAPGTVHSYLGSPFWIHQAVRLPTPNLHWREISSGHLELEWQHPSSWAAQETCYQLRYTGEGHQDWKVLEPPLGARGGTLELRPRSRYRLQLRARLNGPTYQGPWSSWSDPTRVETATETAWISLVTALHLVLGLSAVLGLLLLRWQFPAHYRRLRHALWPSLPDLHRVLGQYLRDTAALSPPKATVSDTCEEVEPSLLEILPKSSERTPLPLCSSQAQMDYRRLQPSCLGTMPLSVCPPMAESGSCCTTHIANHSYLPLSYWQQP

c-mpl [3] = molecular target: T2, c-mpl (Homo sapiens, UniProt P40238); conditions: cited from earlier work
T2 sequence (P40238 26-635): T1 sequence (P40238 26-635)

c-mpl [4] = conditions: cited from earlier work
c-mpl [5] = conditions: cited from earlier work; remark: listed apart in the source
c-mpl [6] = molecular target: T3, c-mpl (Mus musculus, UniProt Q08351); conditions: cited from earlier work
T3 sequence (Q08351 26-625): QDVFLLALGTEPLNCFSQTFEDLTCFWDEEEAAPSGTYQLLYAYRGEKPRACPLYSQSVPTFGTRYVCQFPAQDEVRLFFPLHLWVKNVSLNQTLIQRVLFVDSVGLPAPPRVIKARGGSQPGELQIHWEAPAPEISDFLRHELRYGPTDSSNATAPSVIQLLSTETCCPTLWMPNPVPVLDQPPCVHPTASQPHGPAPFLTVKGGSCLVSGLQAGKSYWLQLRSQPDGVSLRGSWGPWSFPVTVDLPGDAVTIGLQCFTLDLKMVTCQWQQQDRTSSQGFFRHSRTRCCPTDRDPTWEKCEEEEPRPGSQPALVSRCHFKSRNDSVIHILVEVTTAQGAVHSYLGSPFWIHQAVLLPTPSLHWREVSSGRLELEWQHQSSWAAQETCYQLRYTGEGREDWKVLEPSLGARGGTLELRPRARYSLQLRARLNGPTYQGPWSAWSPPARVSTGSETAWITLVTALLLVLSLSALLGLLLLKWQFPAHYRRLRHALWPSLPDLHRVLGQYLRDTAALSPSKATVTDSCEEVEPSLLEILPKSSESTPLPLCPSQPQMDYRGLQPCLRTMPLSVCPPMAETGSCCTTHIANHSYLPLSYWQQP

c-mpl [7] = conditions: cited from earlier work; remark: listed apart in the source
mouse receptors = molecular target: T4, mouse receptors (Mus musculus, UniProt Q08351); conditions: cited from earlier work
T4 sequence (Q08351 26-625): T3 sequence (Q08351 26-625)

rat receptors = conditions: cited from earlier work
dog receptors = conditions: cited from earlier work

SMILES | EC50 (Hu BM CD34) [nM] | T1/2 [1] | Binding site [2] | species specificity (c-mpl [3]) | cross-reactivity: cynomolgus macaques (c-mpl [4]) | cross-reactivity: cat (c-mpl [5]) | cross-reactivity: mouse (c-mpl [6]) | cross-reactivity: chimpanzee (c-mpl [7]) | cross-reactivity to mouse receptors (mouse receptors) | cross-reactivity to rat receptors (rat receptors) | cross-reactivity to dog receptors (dog receptors)
CC1=NN(c2ccc(C)c(C)c2)C(=O)/C1=N\Nc1cccc(-c2cccc(C(=O)O)c2)c1O [SB297115/Eltrombopag] | ~100 | T1/2 = 12 hr | Binding site: a hu c-mpl transmembrane domain (His499, Thr496) | High species specificity | No cross-reactivity: cynomolgus macaques, cat, mouse, etc. | No cross-reactivity: cynomolgus macaques, cat, mouse, etc. | No cross-reactivity: cynomolgus macaques, cat, mouse, etc. | Cross-reactivity: chimpanzee |  |  | 
CCC(C)C(N)C(=O)NC(CCC(=O)O)C(=O)NCC(=O)N1CCCC1C(=O)NC(C(=O)NC(CC(C)C)C(=O)NC(CCCNC(=N)N)C(=O)NC(CCC(N)=O)C(=O)NC(Cc1ccc2ccccc2c1)C(=O)NC(CC(C)C)C(=O)NC(C)C(=O)NC(C)C(=O)NC(CCCNC(=N)N)C(=O)N(C)CC(=O)NC(CCCCNC(=O)CN(C)C(=O)C(CCCNC(N)N)NC(=O)C(C)NC(=O)C(C)NC(=O)C(CC(C)C)NC(=O)C(Cc1ccc2ccccc2c1)NC(=O)C(CCC(N)=O)NC(=O)C(CCCNC(=N)N)NC(=O)C(CC(C)C)NC(=O)C(NC(=O)C1CCCN1C(=O)CNC(=O)C(CCC(=O)O)NC(=O)C(NC)C(C)CC)C(C)O)C(N)=O)C(C)O (centres unmarked) [peg-TPOmp] (I: H-IEGPTLRQ[2Nal]LAAR[Sar]K-NH2 / II: H-[NMeI]EGPTLRQ[2Nal]LAA[X1][Sar]; amide I:15-II:C; configuration not given here) |  |  |  |  |  |  |  |  | Cross-reactive to mouse, rat, and dog receptors | Cross-reactive to mouse, rat, and dog receptors | Cross-reactive to mouse, rat, and dog receptors
